In US12268694B2, “Combination pharmaceutical agents as RSV inhibitors” (Enanta Pharmaceuticals, Inc., priority 2017, dated 2025):
Read-outs that look alike come from different tables or passages of the source.

Key:
[1] = system: genotype A, "Long" strain RSV; experiment: RSV-A assay: CPE protection in HEp-2 cells, ATPlite readout; type: cell-based, human respiratory syncytial virus
Outline: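 EC50 derives from ATPlite luminescence after 5-day culture of RSV Long-infected (MOI 0.1) HEp-2 cells, seeded 8,000/well, exposed to duplicate 2-fold compound series. CC50 comes from an identical plate receiving medium instead of virus.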

HEp-2 cells = experiment: Cytotoxicity in parallel to the RSV-A assay (no virus), ATPlite readout; type: cell-based, human
Procedure: Following extensive parameter testing, the final assay is run as follows: HEp-2 cells are seeded into the inner 60 wells of a 96-well plate at 8,000 cells per well in a volume of 50 μL using Growth Media (DMEM without phenol red, 1% L-Glut, 1% Penn/Strep, 1% nonessential amino acids, 10% heat-inactivated FBS). 2-fold serial dilutions of control and test compounds are added to the wells in duplicate in a total volume of 25 μL. Viral stock is then added to the wells at a multiplicity of infection (MOI) of 0.1 in a volume of 25 μL, bringing the total volume of each well to 100 μL. The MOI is calculated using the PFU/mL, or TCID50 if unavailable. Each 96-well plate has a control column of 6 wells with cells and virus but no compound (negative control, max CPE), a column with cells but no compound or virus (positive control, minimum CPE), and a column with no cells or virus or compound (background plate/reagent control). The control wells with cells but no virus are given an additional 25 μL of growth media containing an equal quantity of sucrose as those wells receiving the viral stock in order to keep consistent in media and volume conditions. The outer wells of the plate are filled with 125 μL of moat media (DMEM, 1% Penn/Strep) to act as a thermal and evaporative moat around the test wells. Following a 5-day incubation period, the plates are read using ATPlite (50 μL added per well), which quantifies the amount of ATP (a measure of cell health) present in each well. Assay plates are read using the Envision luminometer. In parallel, cytotoxicity is examined on an additional 96-well plate treated in an identical manner, but substituting the 25 μL of viral stock for 25 μL of growth media. […] EC50 ranges are as follows: A <0.4 μM; B 0.4-0.8 μM; C >0.8 μM and CC50 ranges are as follows: A >50 μM; B 10-50 μM; C <10 μM.

[2] = human respiratory syncytial virus, HEp-2, read-out: Human RSV-A (“Long” strain) EC50
[3] = HEp-2 cells, RSV-A Long strain, ATPlite readout, read-out: Human RSV-A (“Long” strain) EC50

Compound | EC50 [1, 2] [nM] | CC50 (HEp-2 cells) [nM] | EC50 [1, 3] [nM]
COCCOc1cccc(-c2nnc(NC3N=C(c4ccccc4)c4ccccc4NC3=O)o2)c1 (stereo not shown) [Example 1] | > 800 | > 50000 | –
O=C1Nc2ccccc2C(c2ccccc2)=NC1Nc1nnc(-c2ccccc2)o1 (stereo not shown) [Example 2] | > 800 | > 50000 | –
O=C1Nc2ccccc2C(c2ccccc2)=NC1Nc1nnc(-c2cccc(F)c2)o1 (stereo not shown) [Example 3] | > 800 | > 50000 | –
COc1cccc(-c2nnc(NC3N=C(c4ccccc4)c4ccccc4NC3=O)o2)c1 (stereo not shown) [Example 4] | > 800 | > 50000 | –
O=C1Nc2ccccc2C(c2ccccc2)=NC1Nc1nnc(C2CC2)o1 (stereo not shown) [Example 5] | > 800 | > 50000 | –
O=C1Nc2ccccc2C(c2ccccc2)=NC1Nc1nnc(-c2ccccc2F)o1 (stereo not shown) [Example 6] | > 800 | > 50000 | –
O=C1Nc2ccccc2C(c2ccccc2)=N[C@H]1Nc1nnc(-c2ccc(F)cc2)o1 [Example 7b] | > 800 | 10000 to 50000 | –
COc1ccc(-c2nnc(NC3N=C(c4ccccc4)c4ccccc4NC3=O)o2)cc1 (stereo not shown) [Example 8] | > 800 | > 50000 | –
COc1ccccc1-c1nnc(NC2N=C(c3ccccc3)c3ccccc3NC2=O)o1 (stereo not shown) [Example 9] | > 800 | > 50000 | –
O=C1Nc2ccccc2C(c2ccccc2)=N[C@@H]1Nc1nnc(-c2ccco2)o1 [Example 10a] | 400 to 800 | > 50000 | –
O=C1Nc2ccccc2C(c2ccccc2)=N[C@H]1Nc1nnc(-c2ccco2)o1 [Example 10b] | > 800 | < 10000 | –
O=C1Nc2ccccc2C(c2ccccc2)=NC1Nc1nnc(-c2ccccn2)o1 (stereo not shown) [Example 11] | 400 to 800 | > 50000 | –
N#Cc1ccc(-c2nnc(NC3N=C(c4ccccc4)c4ccccc4NC3=O)o2)cc1 (stereo not shown) [Example 12] | 400 to 800 | > 50000 | –
O=C1Nc2ccccc2C(c2ccccc2)=NC1Nc1nnc(-c2ccc(Cl)cc2)o1 (stereo not shown) [Example 13] | < 400 | > 50000 | –
COc1cc(-c2nnc(NC3N=C(c4ccccc4)c4ccccc4NC3=O)o2)ccc1F (stereo not shown) [Example 14] | < 400 | 10000 to 50000 | –
CC(C)Oc1cccc(-c2nnc(NC3N=C(c4ccccc4)c4ccccc4NC3=O)o2)c1 (stereo not shown) [Example 15] | 400 to 800 | > 50000 | –
O=C1Nc2ccccc2C(c2ccccc2)=NC1Nc1nnc(-c2ccc3ccccc3c2)o1 (stereo not shown) [Example 16] | 400 to 800 | > 50000 | –
O=C1Nc2ccccc2C(c2ccccc2)=NC1Nc1nnc(-c2cccc3ccccc23)o1 (stereo not shown) [Example 17] | > 800 | > 50000 | –
Cc1nnc(NC2N=C(c3ccccc3)c3ccccc3NC2=O)o1 (stereo not shown) [Example 18] | > 800 | > 50000 | –
Cc1ccc(-c2nnc(NC3N=C(c4ccccc4)c4ccccc4NC3=O)o2)s1 (stereo not shown) [Example 19] | > 800 | > 50000 | –

Compound | EC50 [1, 2] [nM] | CC50 (HEp-2 cells) [nM] | EC50 [1, 3] [nM]
O=C1Nc2ccccc2C(c2ccccc2)=NC1Nc1nnc(-c2ccc(Cl)o2)o1 (stereo not shown) [Example 20] | > 800 | > 50000 | –
O=C1Nc2ccccc2C(c2ccccc2)=NC1Nc1nnc(C2CCOCC2)o1 (stereo not shown) [Example 21] | > 800 | > 50000 | –
O=C1Nc2ccccc2C(c2ccccc2)=NC1Nc1nnc(Cc2ccccc2)o1 (stereo not shown) [Example 22] | > 800 | > 50000 | –
O=C1Nc2ccccc2C(c2ccccc2)=NC1Nc1nnc(-c2ccc(F)cn2)o1 (stereo not shown) [Example 23] | > 800 | > 50000 | –
COCc1ccn2ncc(-c3nnc(N[C@H]4N=C(c5ccccc5)c5ccccc5NC4=O)o3)c2c1 [Example 449] | > 800 | – | –
O=C1Nc2ccccc2C(c2ccccc2)=NC1Nc1nnc(-c2ncc(C(F)(F)F)cc2CCO)o1 (stereo not shown) [Example 450] | > 800 | – | –
COC[C@@H](C)Nc1sc(C(F)(F)F)nc1-c1nnc(N[C@H]2N=C(c3ccccc3)c3ccccc3NC2=O)o1 [Example 451] | 400 to 800 | – | –
CO[C@@H](C)CNc1sc(C(F)(F)F)nc1-c1nnc(N[C@H]2N=C(c3ccccc3)c3ccccc3NC2=O)o1 [Example 452] | < 400 | – | –
O=C1Nc2ccccc2C(c2ccccc2)=N[C@@H]1Nc1nnc(-c2nc(C(F)(F)F)sc2C2=CCOCC2)o1 [Example 453] | < 400 | – | –
O=C1Nc2ccccc2C(c2ccccc2)=N[C@@H]1Nc1nnc(-c2nc(C(F)(F)C(F)(F)F)sc2N2CCOCC2)o1 [Example 454] | < 400 | – | –
O=C1Nc2ccccc2C(c2ccccc2)=N[C@@H]1Nc1nnc(-c2nc(C3(O)CCC3)sc2N2CCOCC2)o1 [Example 455] | < 400 | – | –
COC[C@H]1CCCN1c1sc(C(F)(F)F)nc1-c1nnc(N[C@H]2N=C(c3ccccc3)c3ccccc3NC2=O)o1 [Example 456] | > 800 | – | –
COC[C@@H]1CCCN1c1sc(C(F)(F)F)nc1-c1nnc(N[C@H]2N=C(c3ccccc3)c3ccccc3NC2=O)o1 [Example 457] | > 800 | – | –
CC(C)(c1nc(-c2nnc(N[C@H]3N=C(c4ccccc4)c4ccccc4NC3=O)o2)c(N2CCOCC2)s1)N1CCOCC1 [Example 459] | < 400 | – | –
O=C1Nc2ccccc2C(c2ccccc2)=N[C@@H]1Nc1nnc(-c2nc(C3(C(F)(F)F)CC3)sc2N2CCOCC2)o1 [Example 460] | < 400 | – | –
O=C1Nc2ccccc2C(c2ccccc2)=NC1Nc1nnc(-c2ncc(C(F)F)cc2N2CCOCC2)o1 (stereo not shown) [Example 461] | < 400 | – | –
O=C1Nc2ccccc2C(c2ccccc2)=NC1Nc1cc(-c2ccccc2)cnn1 (stereo not shown) [Example 462] | > 800 | – | –
O=C1Nc2ccccc2C(c2ccccc2)=NC1Nc1cc(N2CCOCC2)cnn1 (stereo not shown) [Example 463] | > 800 | – | –
O=C1Nc2ccccc2C(c2ccccc2)=N[C@@H]1Nc1nnc(-c2ncc(C(F)(F)F)cc2N[C@@H]2CCOC2)o1 [Example 464] | < 400 | – | –
Cc1nsc(N2CCOCC2)c1-c1nnc(N[C@H]2N=C(c3ccccc3)c3ccccc3NC2=O)o1 [Example 465] | 400 to 800 | – | –

Compound | EC50 [1, 2] [nM] | CC50 (HEp-2 cells) [nM] | EC50 [1, 3] [nM]
O=C1Nc2ccccc2C(c2ccccc2)=N[C@@H]1Nc1nnc(-c2ncc(C(F)(F)F)cc2N2CCOc3ccccc32)o1 [Example 468] | > 800 | – | –
O=C1Nc2ccccc2C(c2ccccc2)=N[C@@H]1Nc1nnc(-c2ncc(C(F)(F)F)cc2NC2COC2)o1 [Example 469] | < 400 | – | –
O=C1Nc2ccccc2C(c2ccccc2)=N[C@@H]1Nc1nnc(-c2ncc(C(F)(F)F)cc2N[C@H]2CCOC2)o1 [Example 470] | > 800 | – | –
COCCNc1sccc1-c1nnc(N[C@H]2N=C(c3ccccc3)c3ccccc3NC2=O)o1 [Example 472] | > 800 | – | –
COCCNc1sc(C(F)(F)F)nc1-c1nnc(N[C@H]2N=C(c3ccccc3)c3ccccc3NC2=O)o1 [Example 473] | < 400 | – | –
O=C1Nc2ccccc2C(c2ccccc2)=N[C@@H]1Nc1nnc(-c2nc(C(F)(F)F)sc2N[C@@H]2CCOC2)o1 [Example 474] | < 400 | – | –
O=C1Nc2ccccc2C(c2ccccc2)=N[C@@H]1Nc1nnc(-c2nc(C(F)(F)F)sc2NCC2COC2)o1 [Example 475] | 400 to 800 | – | –
O=C1Nc2ccccc2C(c2ccccc2)=N[C@@H]1Nc1nnc(-c2oc3cc(F)ccc3c2N2CCOCC2)o1 [Example 476] | 400 to 800 | – | –
O=C1Nc2ccccc2C(c2ccccc2)=N[C@@H]1Nc1nnc(-c2oc3cccc(F)c3c2N2CCOCC2)o1 [Example 477] | < 400 | – | –
CC1(c2nc(-c3nnc(N[C@H]4N=C(c5ccccc5)c5ccccc5NC4=O)o3)c(N3CCOCC3)s2)CCC1 [Example 478] | < 400 | – | –
COCCCc1sc(C)nc1-c1nnc(N[C@H]2N=C(c3ccccc3)c3ccccc3NC2=O)o1 [Example 479] | > 800 | – | –
O=C1Nc2ccccc2C(c2ccccc2)=N[C@@H]1Nc1nnc(-c2nc(C(F)(F)F)sc2N2CCO[C@@H]3C[C@@H]32)o1 [Example 484] | – | – | < 400
O=C1Nc2ccccc2C(c2ccccc2)=N[C@@H]1Nc1nnc(-c2nc(C(F)(F)F)sc2N2CCO[C@H]3C[C@H]32)o1 [Example 485] | – | – | > 800
O=C1Nc2ccccc2C(c2ccccc2)=N[C@H]1Nc1nnc(-c2nc(C(F)(F)F)sc2N2CCO[C@@H]3C[C@@H]32)o1 [Example 486] | – | – | > 800
O=C1Nc2ccccc2C(c2ccccc2)=N[C@H]1Nc1nnc(-c2nc(C(F)(F)F)sc2N2CCO[C@H]3C[C@H]32)o1 [Example 487] | – | – | > 800
O=C1Nc2ccccc2C(c2ccccc2)=N[C@H]1Nc1nnc(-c2cn(CC(F)(F)F)nc2N2CCOCC2)o1 [Example 488] | – | – | < 400
O=C1Nc2ccccc2C(c2ccccc2)=N[C@@H]1Nc1nnc(-c2cn(CC(F)(F)F)nc2N2CCOCC2)o1 [Example 489] | – | – | > 800
O=C1Nc2ccccc2C(c2ccccc2)=N[C@@H]1Nc1nnc(-c2nc(C3(C(F)(F)F)CCC3)sc2N2CCOCC2)o1 [Example 490] | < 400 | – | –
